The text below walks through data of paper PMC4569013, “Massive Bioaccumulation and Self‐Assembly of Phenazine Compounds in Live Cells” (Advanced Science, 2015).

The subject of data set [1] is RAW264.7 macrophages. In words: Cell accumulation experiment, transmitted light microscopy of cellular staining pattern. The following applies: for Inferred uptake: inferred from staining pattern after 72 hour incubation; for Observed cellular staining pattern (Notes): live cells, 72 hour incubation, 5 × 10^−6 M (2.5 × 10^−6 M for I). Format: cell-based. The method, then:
Cell Accumulation Experiments and Transmitted Light Microscopic Examination: […] After a 24 h incubation (37 °C, 5% CO2), cells were incubated with solution of clofazmine or its chemical derivatives (300 μL of 5 × 10^−6 m concentration; measured cell viability ranging from 85% to 97% for all compounds tested at this concentration; Figure 1) in DMEM (no phenol red; plus 1 × 10^−3 M sodium pyruvate and 5% FBS). For Compound “I,” 2.5 × 10^−6 M of compound solution in media was used for the RAW 264.7 macrophages incubation because of lower cell viability at higher concentrations (IC50 = (3.95 ± 0.11) × 10^−6 M). A solution of clofazmine or other chemical derivatives was made by a diluting stock solutions (2.5 × 10^−3 M in DMSO; 10 × 10^−3 M stock in DMSO were stored at −80 °C for further use) into DMEM with 5% FBS. […] The extracellular concentration of each compound in each well was maintained by daily replacement of the compound‐containing media. After 72 h of incubation with clofazmine or its derivatives, compound‐containing media were removed and cells were washed twice with media. Live cells in the chambered glasses were examined under inverted transmitted light microscopy (Nikon Eclipse Ti microscope) with a 40× objective and color camera. As a control experiment, fixed cells were also microscopically examined after incubation with the compounds. Cells were seeded on the chambered cover glasses at the density of 1.5 × 10^4 cells cm^−2 (RAW264.7 macrophages) or 2.5 × 10^4 cells cm^−2 (MDCK epithelial cells). After an overnight incubation (37 °C, 5% CO2), media was removed from the wells and cold methanol (−20 °C) was added to each well. After 30 s, remaining methanol was removed by washing with media with 5% FBS. Fixed cells were incubated (37 °C, 5% CO2) with clofazmine or derivatives (300 μL of 5 × 10^−6 M; 2.5 × 10^−6 M for I) in media with 5% FBS. After 72 h, fixed RAW264.7 or MDCK cells were washed with media and examined using the same transmitted microscopy conditions as the live cells.

Data set [2] is described as follows: Solubility measurements in cell culture media (DMEM) with or without FBS. The data set is classed as physicochemical. The following applies: at the concentrations added to the cells. The method, then:
Solubility Measurements: Solutions containing the phenazine derivatives were made in cell culture media (DMEM) with or without FBS (10%). After a 24 h incubation, the solutions were centrifuged (10 000 × g, 10 min), the supernatant was removed and the precipitate was dissolved in 9 M H2SO4. The supernatant was diluted with 10 M NaOH to precipitate the remaining solubilized compound. The diluted supernatant was centrifuged (10 000 × g, 10 min) followed by dissolution of the precipitate in 9 M H2SO4. Both fractions were spectrophotometrically measured with a Biotek microplate spectrophotometer (λ = 540 nm) and phenazine content was determined using calibrated clofazimine standards.

On the set-up of data set [3]: method as in PMID 21800872. The following applies: DMEM with 5% FBS; cited from earlier work.
The test system of data set [4] is RAW264.7 macrophages. In words: XTT colorimetric cytotoxicity assay. The data set is classed as cell-based. To be noted: Mus musculus, RAW 264.7 macrophages, 72 h incubation, read-out: IC50 (cell viability, XTT). As for the experimental part: Cytotoxicity Measurements: A 3′‐bis(4‐methoxy‐6‐nitro)benzene‐sulfonic acid hydrate (XTT) colorimetric assay was performed to assess the cytotoxicity of the clofazmine derivatives in RAW264.7 macrophages or MDCK epithelial cells using a Cell Proliferation Kit II (Roche Chemicals, Indianapolis, IN). […] The absorbance value in each well was measured at 495 nm against a reference wavelength at 650 nm using a microplate reader (Synergy 2, BioTek Instruments, Winooski, VT). […] The IC50 value for each compound was calculated from the concentration‐response curve generated by a nonlinear regression (curve fit) method in GraphPad Prism version 5.0 (GraphPad Software, Inc., San Diego, CA). The concentration of clofazimine or its chemical derivatives used for further in vitro cell studies was determined based on cell viability (%) assay results (see the next section).
For orientation: Tetrazolium assays rely on reduction of a dye to a coloured formazan, in cell work by metabolically active cells.

In the case of `CC(C)/N=c1\cc2n(-c3ccc(Cl)cc3)c3ccccc3nc-2cc1Nc1ccc(Cl)cc1` [Clofazimine, clofazimine, reference compound], in the data set on RAW264.7 macrophages [1], the Inferred uptake result was “Moderate” and the “Observed cellular staining pattern (Notes)” value is recorded as “Orange-brown staining pattern associated with perinuclear cytoplasmic vesicles”. Also, the “Solubility in serum containing media” value in data set [2] is “stably solubilized”. Further, in data set [3], the “Precipitate formation in media” value is “did not form visible precipitates”.

In general, IC50 refers to the midpoint of a concentration-inhibition curve. With `OCCN=c1cc2n(-c3ccc(Cl)cc3)c3ccccc3nc-2cc1Nc1ccc(Cl)cc1` [I], in the data set with RAW264.7 macrophages [4], the IC50 worked out at 3.95 µM. Moreover, in the data set with RAW264.7 macrophages [1], the Inferred uptake result is on record as “Excellent” and the “Observed cellular staining pattern (Notes)” value was “Dark brown, crystal-like inclusions present in live cells”. Moreover, in the data set on RAW264.7 macrophages [1] (live macrophages, 72 h), the “Cellular staining relative to clofazimine” value was “comparable in morphology and intensity to those of clofazimine”. In addition, in the data set with RAW264.7 macrophages [1] (methanol-fixed cells incubated 72 h with compound (control)), the “Staining in fixed cells” value is listed as “absent in fixed cells”.
